Assay results taken from patent US10174065B2, “Antidiabetic enolic glucoside of phenylpyruvic acid” (ZADEC APS, priority 2010, dated 2019).

Experiments:
[1] = tested on: 3T3-L1 adipocytes; experiment: Glucose uptake in transformed 3T3-L1 adipocytes (colourometric glucose oxidase method); assay type: cell-based
Method: 3T3-L1 cells were transformed in culture using modified DMEM differentiation media supplemented with insulin, dexametasone and isobutylmethylxanthine and cultured for 3 days. The transformed 3T3-L1 adipocytes were then cultured for a further 5 days in modified DMEM supplemented with 10% FCS before being exposed to insulin, metformin and compounds of the present invention (see Table 1). Glucose uptake over a three (3) hour period was determined after the 5 days of treatment using a colourometric glucose oxidase method (Biovision Inc, USA).
The glucose concentration column represents the glucose concentration remaining in the media following three (3) hour exposure to the cells. The glucose uptake column represents glucose uptake from the media after a 3 hour exposure. SD represents the standard deviation. The percentage increases calculated from the relevant solvent vehicle and the P=values are reflected in the last two columns respectively.

[2] = tested on: Chang cells; experiment: 2-deoxy-[3H]-D-glucose uptake assay; assay type: cell-based; settings: Chang cell cultures, 3 hrs exposure
Method: The glucose uptake of RX-1 and selected analogues after administration of test compounds to Chang cell cultures were determined in an operating protocol for the 2-deoxy-[^3H]-D-glucose. The protocol, which is described in more detail below, has been designed to test for the RX-1 (and RX-1 analogues) mediated glucose uptake. In Table the EC50 values for the uptake for RX-1 and representative analogues is shown.
Stock solutions of the RX-1 analogues supplied in cryo vials (DrugMode) was prepared by diluting the compound with […] sterile tissue culture grade water. This will yield a 5 mM stock solution. If the analogue […] an additional 50 μl methanol will be added (this will be recorded clearly on the log sheet). This will yield a 4 mM stock solution. Stock solutions will be kept on ice at all times and analogues will be stored in 20 μl aliquots at −80 C for subsequent use. Tubes that have been thawed will be clearly marked on the label.
RX-1 (10 μM) Positive Control Solution • To prepare a 10 μM RX-1 solution as positive control. Add 30 μl to 2970 μl modified DMEM media supplemented with 8 mM glucose.
RX-1 Analogue (31.6 μM) Test Solutions • To prepare a 31.6 μM RX-1 analogue test solution. Add 19 μl of the 5 mM to 2981 μl modified DMEM media supplemented with 8 mM glucose. To prepare a 31.6 μM RX-1 analogue test solution from a 4 mM stock solution, add 24 μl to 2976 μl modified DMEM media supplemented with 8 mM glucose.
Cell Seeding in 24-Well Plates • Chang cells are cultured according to procedures described in MRC cell culture SOPs: TC-B2a Thawing of cells and TC-B1a Cell line maintenance—general principles. Make sure cells are in the log phase (i.e. <70% confluence) and less than 20 passages. • Harvest cells using 0.25% (w/v) Trypsin/0.53 mM EDTA solution. • Count cells and resuspend to 30 000 cells/ml (Chang cell seeding density for 24-well plate=30 000 cells/ml) in EMEM (with pyruvate and NEAA, but without L-glutamate (Lonza, USA) containing 10% FBS (Gibco, UK) and pipette 1 ml/well cell suspension to a 24-well plate corresponding to 30 000 cells/well.
• after 3 days of cell growth, aspirate medium • wash cells once with pre-warmed DPBS at 37° C. • add 500 μl of pre-warmed 37° C. DMEM/0.1% BSA (without phenol red, glucose and pyruvate) to serum starve cells to remove residual glucose and FBS • incubate at 37° C. in humidified air and 5% CO2 for 30 min • aspirate DMEM/0.1% BSA (without phenol red, glucose and pyruvate) • Prepare test dilutions as specified in the plate layout (see below) • add 500 μl pre-warmed 37° C. of test dilution per well according to plate layout • incubate at 37° C. in humidified air and 5% CO2 for 3 hrs • remove test medium and wash cells once with DPBS (37° C.) • add 250 μl of test medium containing 0.5 μCi/ml ^3H-2-DOG to each well use (0.5 μl ^3H to 1 ml medium) • Incubate cells at 37° C. in humidified air and 5% CO2 for 15 min • Aspirate medium • To stop the reaction, wash cells twice with ice-cold DPBS • Aspirate DPBS and ensure that wells are as dry as possible • Lyse cells by adding 1 ml of 0.3N NaOH/1% SDS and incubate at 37° C. for at least 45 min • Mix cell lysate thoroughly before subsequent use in LSC and Bradford protein determination

**Q.** Which results are given for `O=C(O)/C(=C/c1ccccc1)O[C@@H]1O[C@H](CO)[C@@H](O)[C@H](O)[C@H]1O` [RX-1, 3-Phenyl-2-(3,4,5-trihydroxy-6-hydroxymethyl-tetrahydro-pyran-2-yloxy)-acrylic acid]?
**A.** glucose uptake over a 3 hour culture period ([1]; 3T3-L1 adipose cells): significantly increased; Glucose conc. ([1]; glucose remaining in the media after 3 hour exposure to the cells, media containing 8 mM glucose): 3.19 nM/ul; Glucose Uptake ([1]; glucose uptake from the media after 3 hour exposure, media containing 8 mM glucose): 2.86 nM/ul; % uptake ([1]; relative to DMSO vehicle = 100.00, 3 hour glucose uptake): 122.64%; EC50 [2]: 3.22 µM
